The numbers were not newly measured in patent US20150119339A1, “USE OF HMB TO IMPROVE HEALTH OUTCOMES FOR HOSPITALIZED PATIENTS” (ABBOTT LABORATORIES, priority 2012, published 2015), which cites them from elsewhere.

For the data set the following is noted: three grams of HMB; older (70±1 yr) men and women; 10 days voluntary bed rest; not statistically different.

Consider `CC(C)(O)CC(=O)O` [HMB, 3-hydroxy-3-methylbutanoic acid], for which the “loss of lean body mass” value is “less loss of lean body mass”.
